# From patent US20180085374A1, “Use of Morpholino Compounds for the Treatment of Halitosis” (MERIAL INC., priority 2007, published 2018)
# Columns and labels:
# [1] = test system: Volatile Sulphur Compounds (VSCs); experiment: Levels of VSCs following treatment with delmopinol; format: in vivo
# oral bacteria = conditions: delmopinol mouthwash; cited from earlier work
smiles,measurement,setting,value
"CCCC(CCC)CCCC1COCCN1CCO (centres unmarked) [delmopinol, 3-(4-propyl-heptyl)-4-(2-hydroxyethyl)morpholine]",levels of VSCs,[1],decrease
same,numbers or proportions of oral bacteria,oral bacteria,does not significantly affect
